Results published in PubChem BioAssay (NCI).
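Results reflect a 48-hour exposure of cells in 96-well plates to compound at five concentrations. TGI: concentration producing complete growth inhibition.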

How the values were obtained:
Test in all cases: inhibition of tumour cell growth, NCI panel, 48 h
786-0 renal = tested on: 786-0 renal
A498 renal = tested on: A498 renal
A549 NSCLC = tested on: A549 NSCLC
ACHN renal = tested on: ACHN renal
BT-549 breast = tested on: BT-549 breast
CAKI-1 renal = tested on: CAKI-1 renal
CCRF-CEM leukemia = tested on: CCRF-CEM leukemia
COLO 205 colon = tested on: COLO 205 colon
DU-145 prostate = tested on: DU-145 prostate
EKVX NSCLC = tested on: EKVX NSCLC
HCC-2998 colon = tested on: HCC-2998 colon
HCT-116 colon = tested on: HCT-116 colon
HCT-15 colon = tested on: HCT-15 colon
HL-60(TB) leukemia = tested on: HL-60(TB) leukemia
HOP-62 NSCLC = tested on: HOP-62 NSCLC
HOP-92 NSCLC = tested on: HOP-92 NSCLC
HS 578T breast = tested on: HS 578T breast
HT29 colon = tested on: HT29 colon
IGROV1 ovarian = tested on: IGROV1 ovarian
K-562 leukemia = tested on: K-562 leukemia
KM12 colon = tested on: KM12 colon
LOX IMVI melanoma = tested on: LOX IMVI melanoma
M14 melanoma = tested on: M14 melanoma
MCF7 breast = tested on: MCF7 breast
MDA-MB-231 breast = tested on: MDA-MB-231 breast
MDA-MB-435 = tested on: MDA-MB-435
MDA-N = tested on: MDA-N
MOLT-4 leukemia = tested on: MOLT-4 leukemia
NCI-H226 lung = tested on: NCI-H226 lung
NCI-H23 lung = tested on: NCI-H23 lung
NCI-H522 lung = tested on: NCI-H522 lung
NCI/ADR-RES ovarian = tested on: NCI/ADR-RES ovarian
OVCAR-4 ovarian = tested on: OVCAR-4 ovarian
OVCAR-5 ovarian = tested on: OVCAR-5 ovarian
OVCAR-8 ovarian = tested on: OVCAR-8 ovarian
PC-3 prostate = tested on: PC-3 prostate
RPMI-8226 leukemia = tested on: RPMI-8226 leukemia
SF-268 CNS = tested on: SF-268 CNS
SF-295 CNS = tested on: SF-295 CNS
SK-MEL-2 melanoma = tested on: SK-MEL-2 melanoma
SK-MEL-28 melanoma = tested on: SK-MEL-28 melanoma
SK-MEL-5 melanoma = tested on: SK-MEL-5 melanoma
SK-OV-3 ovarian = tested on: SK-OV-3 ovarian
SN12C renal = tested on: SN12C renal
SNB-19 CNS = tested on: SNB-19 CNS
SNB-75 CNS = tested on: SNB-75 CNS
SR leukemia = tested on: SR leukemia
T-47D breast = tested on: T-47D breast
TK-10 renal = tested on: TK-10 renal
U251 CNS = tested on: U251 CNS
UACC-257 melanoma = tested on: UACC-257 melanoma
UACC-62 melanoma = tested on: UACC-62 melanoma
UO-31 renal = tested on: UO-31 renal

COc1cc(C2S/C(=C/c3ccccc3)C(=O)N2Cc2ccccc2)cc(OC)c1OC (stereo not drawn)
TGI (786-0 renal): > 100 µM | TGI (A498 renal): > 100 µM | TGI (A549 NSCLC): > 100 µM | TGI (ACHN renal): > 100 µM | TGI (BT-549 breast): > 100 µM | TGI (CAKI-1 renal): > 100 µM | TGI (CCRF-CEM leukemia): 87.2 µM | TGI (COLO 205 colon): > 100 µM | TGI (DU-145 prostate): > 100 µM | TGI (EKVX NSCLC): > 100 µM | TGI (HCC-2998 colon): 69.4 µM | TGI (HCT-116 colon): 47 µM | TGI (HCT-15 colon): > 100 µM | TGI (HL-60(TB) leukemia): > 100 µM | TGI (HOP-62 NSCLC): > 100 µM | TGI (HOP-92 NSCLC): > 100 µM | TGI (HS 578T breast): > 100 µM | TGI (HT29 colon): > 100 µM | TGI (IGROV1 ovarian): > 100 µM | TGI (K-562 leukemia): > 100 µM | TGI (KM12 colon): > 100 µM | TGI (LOX IMVI melanoma): > 100 µM | TGI (M14 melanoma): > 100 µM | TGI (MCF7 breast): > 100 µM | TGI (MDA-MB-231 breast): > 100 µM | TGI (MDA-MB-435): > 100 µM | TGI (MDA-N): 52.6 µM | TGI (MOLT-4 leukemia): > 100 µM | TGI (NCI-H226 lung): > 100 µM | TGI (NCI-H23 lung): > 100 µM | TGI (NCI-H522 lung): 62.8 µM | TGI (NCI/ADR-RES ovarian): > 100 µM | TGI (OVCAR-4 ovarian): > 100 µM | TGI (OVCAR-5 ovarian): > 100 µM | TGI (OVCAR-8 ovarian): > 100 µM | TGI (PC-3 prostate): > 100 µM | TGI (RPMI-8226 leukemia): > 100 µM | TGI (SF-268 CNS): > 100 µM | TGI (SF-295 CNS): > 100 µM | TGI (SK-MEL-2 melanoma): > 100 µM | TGI (SK-MEL-28 melanoma): > 100 µM | TGI (SK-MEL-5 melanoma): > 100 µM | TGI (SK-OV-3 ovarian): > 100 µM | TGI (SN12C renal): > 100 µM | TGI (SNB-19 CNS): > 100 µM | TGI (SNB-75 CNS): 73.3 µM | TGI (SR leukemia): 57.2 µM | TGI (T-47D breast): 41.1 µM | TGI (TK-10 renal): > 100 µM | TGI (U251 CNS): > 100 µM | TGI (UACC-257 melanoma): > 100 µM | TGI (UACC-62 melanoma): > 100 µM | TGI (UO-31 renal): > 100 µM
